Tests used:
Type in all cases: cell-based
[1] = system: histamine release by mastocytes; assay: Release of histamine by mastocytes stimulated with substance P (ELISA); settings: 10 nM calcium; 10 μM substance P
Procedure: The mastocytes were then stimulated with 10 μM substance P for 15 minutes. At the end of incubation, the release of histamine was quantified by ELISA.
(§1) The results were analyzed statistically by a Student's t-test.

[2] = system: IL8 production by human keratinocytes (NCTC-2544 cell line); assay: Production of IL8 by PMA-stimulated keratinocytes (ELISA); settings: 10^−7 M dexamethasone, 0.1 μg/ml PMA
Procedure: The cells were then treated with 0.1 μg/ml phorbol myristate acetate (PMA) for 24 hours, always in the presence of AV or the references.
At the end of the treatment, the quantities of interleukin 8 (IL8) and prostaglandin E2 (PGE2) secreted were measured by ELISA in the culture supernatants.
as §1

[3] = system: PGE2 production by human keratinocytes (NCTC-2544 cell line); assay: Production of PGE2 by PMA-stimulated keratinocytes (ELISA); settings: 10^−6 M indomethacin, 0.1 μg/ml PMA
[4] = system: Normal human epidermal melanocytes; assay: Melanin production by melanocytes stimulated by NDP-MSH; settings: 0.25 mM kojic acid; 10^−7 M NDP-MSH; 240 hours
Procedure: After 240 hours of incubation, melanin was extracted from the cells and quantified by spectrophotometry. The results were analyzed statistically by a Student's t-test.

[5] = system: MMP9 gene expression in normal human keratinocytes; assay: Gene expression of MMP9 in keratinocytes, real-time RT-PCR; settings: 5 ng/ml TGFβ1; 48 hours
Procedure: (§2) Normal human keratinocytes were incubated for 48 hours in the presence of the avocado extract concentrated in polyphenols (AV) at concentrations of 0.001% and 0.005% (w/v of active material) or 5 ng/ml TGFβ1 (reference).
(§3) The gene expression of MMP9 and laminin-5 (subunit γ2) was studied by real-time RT-PCR.
(§4) The results were analyzed statistically by a one-factor ANOVA followed by a Dunnett's test: ns (not significant) p>0.05; *p<0.05; ***p<0.001.

[6] = system: laminin-5 (subunit γ2) gene expression in normal human keratinocytes; assay: Gene expression of laminin-5 (subunit γ2) in keratinocytes, real-time RT-PCR; settings: 5 ng/ml TGFβ1; 48 hours
Procedure: as §2, §3, §4

`[Ca+2]` [Calcium, calcium] was tested, and the Histamine [1] was 21.8 ± 1.0 ng/mL and the “Inhibition of histamine release” value [1] was −85% p < 0.01.
`C[C@@H]1C[C@H]2[C@@H]3CCC4=CC(=O)C=C[C@]4(C)[C@@]3(F)[C@@H](O)C[C@]2(C)[C@@]1(O)C(=O)CO` [Dexamethasone, dexamethasone] was tested, and the IL8 [2] was 7.4 ± 0.8 ng/mL and the inhibition at 0.1 µM ([2]; Homo sapiens, NCTC-2544) was 85%.
Work on `COc1ccc2c(c1)c(CC(=O)O)c(C)n2C(=O)c1ccc(Cl)cc1` [Indomethacin, indomethacin] yielded a PGE2 [3] of 0.039 ± 0.0 ng/mL and an inhibition at 1 µM ([3]; Homo sapiens, NCTC-2544) of 100%.
`O=c1cc(CO)occ1O` [Kojic acid, kojic acid] was tested, and the “Change in melanin versus stimulated control” value [4] was −32% p < 0.001.
With “TGFβ1: 5 ng/ml TGFβ1 (reference) in keratinocyte migration marker test” the “MMP9 gene expression (relative quantity)” value [5] was 19.84, the “MMP9 gene expression, change versus control cells” value [5] was “+1884% ***” and the “Laminin-5 gene expression (relative quantity)” value [6] was 11.33. The “Laminin-5 gene expression, change versus control cells” value [6] was “+1033% ***”.

Reference: patent US11026441B2, “Avocado flesh and/or skin extract rich in polyphenols and cosmetic, dermatological and nutraceutical compositions comprising same” (Laboratoires Expanscience, priority 2010, dated 2021)
